# Measured values reported in patent US10577363B2, “Substituted piperidine compounds” (EPIZYME, INC., priority 2014, dated 2020).
# Target: SMYD3 (Homo sapiens (Human), UniProt Q9H7B4)
# Experiment: SMYD3 biochemical assay (SPA, 3H-SAM methylation of MEKK2 protein substrate)
# Settings: read-out: SMYD3 Biochem IC50 (μM)*
# From the text: S-adenosylmethionine (SAM), S-adenosylhomocysteine (SAH), Tris, Tween20, dimethylsulfoxide (DMSO), bovine skin gelatin (BSG), and Tris(2-carboxyethyl)phosphine hydrochloride solution (TCEP) were purchased from Sigma-Aldrich at the highest level of purity possible. ^3H-SAM was purchase from American Radiolabeled Chemicals with a specific activity of 80 Ci/mmol. 384-well opaque white OptiPlates and SPA beads (Perkin Elmer, catalog # RPNQ0013) were purchased from PerkinElmer.
# N-terminally GST-tagged MEKK2 (MAP3K2) protein corresponding to reference sequence AAF63496.3 was purchased from Life Technologies (catalog # PV4010). This protein was expressed in High Five insect cells and purified to >85% purity. Protein identity was confirmed by MS/MS analysis after proteolytic digestion. The protein sequence used was:
# Full-length human SMYD3 isoform 1 (BAB86333) was inserted into a modified pET21b plasmid containing a His6 tag and TEV and SUMO cleavage sites.
# E. coli (BL21 codonplus RIL strain, Stratagene) were transformed with plasmid pEPZ553 by mixing competent cells and plasmid DNA and incubating on ice for 30 minutes followed by heat shock at 42° C. for 1 minute and cooling on ice for 2 minutes. Transformed cells were grown and selected on LB agar with 100 μg/mL ampicillin and 17 μg/mL chloramphenicol at 37° C. overnight. A single clone was used to inoculate 200 mL of LB medium with 100 μg/mL ampicillin and 17 μg/mL chloramphenicol and incubated at 37° C. on an orbital shaker at 180 rpm. Once in log growth, the culture was diluted 1:100 into 2 L of LB medium and grown until OD600 was about 0.3 after which the culture was incubated at 15° C. and 160 rpm. Once OD600 reached about 0.4, IPTG was added to a final concentration of 0.1 mM and the cells were grown overnight at 15° C. and 160 rpm. Cells were harvested by centrifugation at 8000 rpm, for 4 minutes at 4° C. and stored at −80° C. for purification.
# The column was washed with Buffer B (Buffer A plus 20 mM imidazole) and His-tagged SMYD3 was eluted with Buffer C (Buffer A plus 300 mM imidazole). The His tag, TEV and SUMO cleavage sites were removed generating native SMYD3 by addition of ULP1 protein at a ratio of 1:200 (ULP1:SMYD3). Imidazole was removed by dialysis overnight in Buffer A. The dialyzed solution was applied to a second Nickel column and the native SMYD3 protein was collected from the column flow-through. The flow-through was dialyzed in Buffer D (25 mM Tris, 5% glycerol, 5 mM β-mercaptoethanol, 50 mM NaCl, pH7.8) and ULP1 was removed using a Q sepharose fast flow column.
# General Procedure for SMYD3 Enzyme Assays on MEKK2 Protein Substrate
# The assays were all performed in a buffer consisting of 25 mM Tris-Cl pH 8.0, 1 mM TCEP, 0.005% BSG, and 0.005% Tween 20, prepared on the day of use. […] DMSO (1 ul) was added to Columns 11, 12, 23, 24, rows A-H for the maximum signal control and 1 ul of SAH, a known product and inhibitor of SMYD3, was added to columns 11, 12, 23, 24, rows I-P for the minimum signal control. A cocktail (40 ul) containing the SMYD3 enzyme was added by Multidrop Combi (Thermo-Fisher). The compounds were allowed to incubate with SMYD3 for 30 min at room temperature, then a cocktail (10 ul) containing SAM and MEKK2 was added to initiate the reaction (final volume=51 ul). […] The assays were stopped by the addition of non-radiolabeled SAM (10 ul) to a final concentration of 100 uM, which dilutes the ^3H-SAM to a level where its incorporation into MEKK2 is no longer detectable. Radiolabeled MEKK2 was detected using a scintillation proximity assay (SPA). 10 uL of a 10 mg/mL solution of SPA beads in 0.5 M citric acid was added and the plates centrifuged at 600 rpm for 1 min to precipitate the radiolabeled MEKK2 onto the SPA beads. The plates were then read in a PerkinElmer TopCount plate reader to measure the quantity of ^3H-labeled MEKK2 as disintegrations per minute (dpm) or alternatively, referred to as counts per minute (cpm).
row,SMILES,IC50 [µM]
1,"NCCC(=O)NC[C@@H](Cc1ccc(O)c(I)c1)C(=O)N1CCC(NC(=O)c2cc(C3CC3)on2)CC1 [compound 34, (R)-N-(1-(3-(3-aminopropanamido)-2-(4-hydroxy-3-iodobenzyl)propanoyl)piperidin-4-yl)-5-cyclopropylisoxazole-3-carboxamide]",1.64
2,"NCCC(=O)NC[C@H](Cc1ccc(O)c(I)c1)C(=O)N1CCC(NC(=O)c2cc(C3CC3)on2)CC1 [compound 35, (S)-N-(1-(3-(3-aminopropanamido)-2-(4-hydroxy-3-iodobenzyl)propanoyl)piperidin-4-yl)-5-cyclopropylisoxazole-3-carboxamide]",0.117
3,"NCC(=O)NC[C@@H](Cc1ccc(O)c(I)c1)C(=O)N1CCC(NC(=O)c2cc(C3CC3)on2)CC1 [compound 36, (R)-N-(1-(3-(2-aminoacetamido)-2-(4-hydroxy-3-iodobenzyl)propanoyl)piperidin-4-yl)-5-cyclopropylisoxazole-3-carboxamide]",9.41
4,"NCC(=O)NC[C@H](Cc1ccc(O)c(I)c1)C(=O)N1CCC(NC(=O)c2cc(C3CC3)on2)CC1 [compound 37, (S)-N-(1-(3-(2-aminoacetamido)-2-(4-hydroxy-3-iodobenzyl)propanoyl)piperidin-4-yl)-5-cyclopropylisoxazole-3-carboxamide]",0.623
5,"Cc1ccc(C[C@H](CN)C(=O)N2CCC(NC(=O)c3cc(C4CC4)on3)CC2)cc1O [compound 38, (R)-N-(1-(3-amino-2-(3-hydroxy-4-methylbenzyl)propanoyl)piperidin-4-yl)-5-cyclopropylisoxazole-3-carboxamide]",0.518
6,"Cc1ccc(C[C@@H](CN)C(=O)N2CCC(NC(=O)c3cc(C4CC4)on3)CC2)cc1O [compound 39, (S)-N-(1-(3-amino-2-(3-hydroxy-4-methylbenzyl)propanoyl)piperidin-4-yl)-5-cyclopropylisoxazole-3-carboxamide]",14
7,"NCCCN1CCC(NC(=O)c2cc(C3CC3)on2)CC1 [compound 40, N-(1-(3-aminopropyl)piperidin-4-yl)-5-cyclopropylisoxazole-3-carboxamide]",3.16
8,"C[C@@H](N)C(=O)NC[C@@H](Cc1ccc(O)c(I)c1)C(=O)N1CCC(NC(=O)c2cc(C3CC3)on2)CC1 [compound 42, N-(1-((R)-3-((R)-2-aminopropanamido)-2-(4-hydroxy-3-iodobenzyl)propanoyl)piperidin-4-yl)-5-cyclopropylisoxazole-3-carboxamide]",8.39
9,"C[C@@H](N)C(=O)NC[C@H](Cc1ccc(O)c(I)c1)C(=O)N1CCC(NC(=O)c2cc(C3CC3)on2)CC1 [compound 43, N-(1-((S)-3-((R)-2-aminopropanamido)-2-(4-hydroxy-3-iodobenzyl)propanoyl)piperidin-4-yl)-5-cyclopropylisoxazole-3-carboxamide]",1.23
10,"C[C@@H](N)CC(=O)NC[C@@H](Cc1ccc(O)c(I)c1)C(=O)N1CCC(NC(=O)c2cc(C3CC3)on2)CC1 [compound 44, N-(1-((R)-3-((R)-3-aminobutanamido)-2-(4-hydroxy-3-iodobenzyl)propanoyl)piperidin-4-yl)-5-cyclopropylisoxazole-3-carboxamide]",13.8
11,"C[C@@H](N)CC(=O)NC[C@H](Cc1ccc(O)c(I)c1)C(=O)N1CCC(NC(=O)c2cc(C3CC3)on2)CC1 [compound 45, N-(1-((S)-3-((R)-3-aminobutanamido)-2-(4-hydroxy-3-iodobenzyl)propanoyl)piperidin-4-yl)-5-cyclopropylisoxazole-3-carboxamide]",0.479
12,"C[C@H]1CN(C(=O)[C@H](N)Cc2ccc(O)cc2)CCC1NC(=O)c1cc(C2CC2)on1 (stereo partly drawn) [compound 47, N-((3S)-1-(D-tyrosyl)-3-methylpiperidin-4-yl)-5-cyclopropylisoxazole-3-carboxamide]",14.9
13,"C[C@@H]1CN(C(=O)[C@H](N)Cc2ccc(O)cc2)CCC1NC(=O)c1cc(C2CC2)on1 (stereo partly drawn) [compound 48, N-((3R)-1-(D-tyrosyl)-3-methylpiperidin-4-yl)-5-cyclopropylisoxazole-3-carboxamide]",14.9
14,"C[C@H]1CN(C(=O)CN)CCC1NC(=O)c1cc(C2CC2)on1 (stereo partly drawn) [compound 49, 5-cyclopropyl-N-((3S)-1-glycyl-3-methylpiperidin-4-yl)isoxazole-3-carboxamide]",37.2
15,"C[C@@H]1CN(C(=O)CN)CC[C@H]1NC(=O)c1cc(C2CC2)on1 [compound 50, 5-cyclopropyl-N-((3R,4R)-1-glycyl-3-methylpiperidin-4-yl)isoxazole-3-carboxamide]",9.72
16,"C[C@@H]1CN(C(=O)CN)CC[C@@H]1NC(=O)c1cc(C2CC2)on1 [compound 51, 5-cyclopropyl-N-((3R,4S)-1-glycyl-3-methylpiperidin-4-yl)isoxazole-3-carboxamide]",12.7
17,"C[C@H]1CC(NC(=O)c2cc(C3CC3)on2)CCN1C(=O)CN (stereo partly drawn) [compound 52, 5-cyclopropyl-N-((2S)-1-glycyl-2-methylpiperidin-4-yl)isoxazole-3-carboxamide]",32.5
18,"C[C@@H]1C[C@@H](NC(=O)c2cc(C3CC3)on2)CCN1C(=O)CC1CCNCC1 [compound 53, 5-cyclopropyl-N-((2R,4S)-2-methyl-1-(2-(piperidin-4-yl)acetyl)piperidin-4-yl)isoxazole-3-carboxamide]",0.862
19,"C[C@H]1C[C@@H](NC(=O)c2cc(C3CC3)on2)CCN1C(=O)CC1CCNCC1 [compound 54, 5-cyclopropyl-N-((2S,4S)-2-methyl-1-(2-(piperidin-4-yl)acetyl)piperidin-4-yl)isoxazole-3-carboxamide]",2.08
20,"C[C@@H]1C[C@H](NC(=O)c2cc(C3CC3)on2)CCN1C(=O)CC1CCNCC1 [compound 55, 5-cyclopropyl-N-((2R,4R)-2-methyl-1-(2-(piperidin-4-yl)acetyl)piperidin-4-yl)isoxazole-3-carboxamide]",0.681
21,"C[C@@H]1C[C@@H](NC(=O)c2cc(C3CC3)on2)CCN1C(=O)[C@H]1CC[C@H](N)CC1 [compound 58, N-((2R,4S)-1-((1r,4R)-4-aminocyclohexane-1-carbonyl)-2-methylpiperidin-4-yl)-5-cyclopropylisoxazole-3-carboxamide]",1.4
22,"C[C@H]1C[C@@H](NC(=O)c2cc(C3CC3)on2)CCN1C(=O)[C@H]1CC[C@H](N)CC1 [compound 59, N-((2S,4S)-1-((1r,4S)-4-aminocyclohexane-1-carbonyl)-2-methylpiperidin-4-yl)-5-cyclopropylisoxazole-3-carboxamide]",7.97
23,"C[C@H]1C[C@H](NC(=O)c2cc(C3CC3)on2)CCN1C(=O)[C@H]1CC[C@H](N)CC1 [compound 60, N-((2S,4R)-1-((1r,4S)-4-aminocyclohexane-1-carbonyl)-2-methylpiperidin-4-yl)-5-cyclopropylisoxazole-3-carboxamide]",1.41
24,"C[C@H](N)C(=O)NC[C@@H](Cc1ccc(O)c(I)c1)C(=O)N1CCC(NC(=O)c2cc(C3CC3)on2)CC1 [compound 61, N-(1-((R)-3-((S)-2-aminopropanamido)-2-(4-hydroxy-3-iodobenzyl)propanoyl)piperidin-4-yl)-5-cyclopropylisoxazole-3-carboxamide]",15.3
25,"C[C@H](N)C(=O)NC[C@H](Cc1ccc(O)c(I)c1)C(=O)N1CCC(NC(=O)c2cc(C3CC3)on2)CC1 [compound 62, N-(1-((S)-3-((S)-2-aminopropanamido)-2-(4-hydroxy-3-iodobenzyl)propanoyl)piperidin-4-yl)-5-cyclopropylisoxazole-3-carboxamide]",1.33
